Tests used:
Bacterial vaginosis (BV) = conditions: following metronidazole treatment of BV; cited from earlier work
E. coli [1] = conditions: multiple 30 minute treatments of 160 ppm nitric oxide; cited from earlier work
Staphylococcus aureus = conditions: multiple 30 minute treatments of 160 ppm nitric oxide; cited from earlier work
E. coli [2] = assay: Biofilm sterilization by gaseous NO; assay type: cell-based, Escherichia coli; conditions: 20,000 ppm NO, 1 liter/minute, 5, 10, 30, 60 or 120 minutes
Experimental: (§1) A biofilm was established in each well of a 6-well plate and the time of treatment with nitric oxide gas for eradication of the biofilm was tested using the biofilm formation assay described hereinabove.
(§2) Briefly, 3 ml of LB media were placed in each well of 12 6-well plates and then each well was inoculated with 10 μl of stock bacteria (E. Coli or A. baumanii (6 plates for each bacterial type). Plates were incubated with agitation for 5 days at 37° C. to establish a biofilm in each well. The media was removed and each well washed twice with sterile saline.
(§3) Plates with established biofilms (one for each bacterial type) were treated with nitric oxide (20,000 ppm, 1 liter/minute flow rate) for 5, 10, 30, 60 or 120 minutes. Control plates were kept at room temperature, without treatment.
(§4) Three of the six wells for each plate were stained with crystal violet to confirm biofilm formation. The biofilm in the remaining 3 wells of each plate was re-suspended (with 30 seconds sonication) in 5 ml sterile saline. Aliquots of 1, 10 and 100 μl of each sample were plated in compartmentalized (3-section) petri plates.

Pseudomonas aeruginosa = conditions: multiple 30 minute treatments of 160 ppm nitric oxide; cited from earlier work
E. coli [3] = assay: Sterilization of E. coli-inoculated catheter sections by nitric oxide dosing (CFU count); assay type: cell-based, Escherichia coli; conditions: 20,000 ppm NO, 30 cc/minutes
Experimental: Six-mm diameter Folysil® silicone Foley catheters, (catalog no. AA6118; Coloplast® Corp. Minneapolis, Minn., USA) (Folysil® and Coloplast® are registered trademarks of Coloplast A/S, Humlebaek, Denmark) were aseptically cut into 2-cm sections and inoculated by immersion in 2 ml of one of 10^3 CFU/ml, 10^5CFU/ml, or 10^8 CFU/ml E. coli. inocula for 30 minutes. Inoculated catheter sections were subsequently dosed with 20,000 parts per million of nitric oxide (at a flow rate of 30 cc/minutes) during 1, 5, 15, 30, 60 or 120 minutes, using the general procedure I described hereinabove. Control catheter sections were not impregnated with nitric oxide, but were stored in sterile sealed vials.
The nitric oxide-treated and untreated catheter segments were then immersed separately in 2 ml media and then incubated for 8 hours at 37° C. Aliquots of the incubation media were plated and numbers of CFU counted. Bacterial loads were calculated as CFU per ml.
Foley catheters, (catalog no. AA6118; Coloplast® Corp. Minneapolis, Minn., USA) is aseptically cut into 2-cm sections and inoculated by immersion in 2 ml of one of 10^3 CFU/ml, 10^5 CFU/ml, or 10^8 CFU/ml E. coli. inocula for 30 minutes. Inoculated catheter sections are subsequently dosed with nitric oxide using the general procedure II described hereinabove. Control catheter sections are not impregnated with nitric oxide, but are stored in sterile sealed vials.
The nitric oxide-treated and untreated catheter segments are then immersed separately in 2 ml media and incubated for 8 hours at 37° C. Aliquots of the incubation media are plated and numbers of CFU counted. Bacterial loads are calculated as CFU per ml.

A. baumanii = assay: Biofilm sterilization by gaseous NO; assay type: cell-based, Acinetobacter baumanii; conditions: 20,000 ppm NO, 1 liter/minute, 5, 10, 30, 60 or 120 minutes
Experimental: as §1, §2, §3, §4

SMILES: Cc1ncc([N+](=O)[O-])n1CCO [metronidazole]
- cure rate (Bacterial vaginosis (BV)): 61%

SMILES: [N]=O [nitric oxide]
- decrease in the bacterial load (E. coli [1]): > 5 log 10 colony forming unit per milliliter (CFU/ml)
- decrease in the bacterial load (Staphylococcus aureus): > 5 log 10 colony forming unit per milliliter (CFU/ml)
- colonies from re-suspended established biofilm (E. coli [2]): no colonies were observed
- decrease in the bacterial load (Pseudomonas aeruginosa): > 5 log 10 colony forming unit per milliliter (CFU/ml)
- treatment time after which the catheter segments were sterilized (E. coli [3]; 10^3 bacterial stock): 1 min
- treatment time after which the catheter segments were sterilized (E. coli [3]; 10^5 bacterial stock): 15 min
- treatment time after which the catheter segments were sterilized (E. coli [3]; 10^8 bacterial stock): 15 min
- colonies from re-suspended established biofilm (A. baumanii): no colonies were observed

From patent US20130078298A1, “GASEOUS NITRIC OXIDE-SEQUESTERING PRODUCTS AND PROCESSES OF PREPARING SAME” (Enox Biopharma, Inc, priority 2010, published 2013)
